ChEMBL document CHEMBL1150506, “S-nitrosation of proteins by N-methyl-N-nitrosoanilines” (Bioorg Med Chem Lett, 1996)

What was measured:
[1] = (§1) Pseudo-first order rate constant for inhibition of thiol-dependent papain enzyme
Papain = target: T1, Papain (Carica papaya, UniProt P00784); experiment: as §1
T1 sequence (P00784 whole entry): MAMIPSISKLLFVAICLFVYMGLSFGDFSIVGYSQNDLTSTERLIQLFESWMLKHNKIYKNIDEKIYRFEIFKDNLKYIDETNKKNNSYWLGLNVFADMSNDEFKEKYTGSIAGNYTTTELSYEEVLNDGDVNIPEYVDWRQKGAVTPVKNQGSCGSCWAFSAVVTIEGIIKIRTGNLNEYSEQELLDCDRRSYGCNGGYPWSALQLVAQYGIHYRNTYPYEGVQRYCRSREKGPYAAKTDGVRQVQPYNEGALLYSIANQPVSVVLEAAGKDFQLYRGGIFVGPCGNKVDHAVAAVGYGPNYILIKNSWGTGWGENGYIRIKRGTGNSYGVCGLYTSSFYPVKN

**Q.** With `CN(N=O)c1ccc(O)cc1` as the compound, how does the Ki [1] read?
**A.** 0.009 min⁻¹

**Q.** Which “pseudo-first-order inhibition rate constant” value (Papain) does the source give for `CN(N=O)c1ccc(Cl)cc1` here?
**A.** 0.017 min⁻¹

**Q.** With `CN(N=O)c1cccc(O)c1` as the compound, how does the “pseudo-first-order inhibition rate constant” value (Papain) read?
**A.** 0.036 min⁻¹

**Q.** Which “pseudo-first-order inhibition rate constant” value (Papain) does the source give for `CN(N=O)c1ccccc1` here?
**A.** 0.057 min⁻¹

**Q.** Which “pseudo-first-order inhibition rate constant” value (Papain) does the source give for `CN(N=O)c1ccccc1O` here?
**A.** 0.011 min⁻¹

**Q.** For `CN(C)c1ccc(N(C)N=O)cc1`, which Ki [1] is on record?
**A.** 0.243 min⁻¹

**Q.** For `CN(N=O)c1ccccc1[N+](=O)[O-]`, which “pseudo-first-order inhibition rate constant” value (Papain) is on record?
**A.** 0.026 min⁻¹

**Q.** For `CN(N=O)c1cc(O)ccc1O` [DEPHOSTATIN], which Ki [1] is on record?
**A.** 0.328 min⁻¹
